The nature of data set [1]: Cell viability MTS assay on MRC-5 cells. The data set is classed as cell-based. The note with it: human, same conditions as HCoV inhibition assay, read-out: CC50 (µM) (95% CI). On the technique in general: Formazan colour is commonly taken as a measure of viable cells.
The test system of data set [2] is RSV-A2. Kind of data set: Virus inhibition assay (plaque reduction), RSV-A2 on Hep-2 cells. In kind it is cell-based. The settings on record: human respiratory syncytial virus; for activity at 0.3 µM / activity at 3 µM / activity at 33 µM: HEp-2, 72 h, read-out: Residual Virus Infectivity (%) RSV-A2.
The test system of data set [3] is HCoV-OC43. As to the kind of experiment: Virus inhibition assay (focus reduction), HCoV-OC43 on MRC-5 cells. In kind it is cell-based, human coronavirus. The settings on record: for activity at 0.3 µM / activity at 3 µM / activity at 33 µM: Betacoronavirus 1, OC43, MRC5, 20 h, read-out: Residual Virus Infectivity (%) HCoV-OC43; for EC50: Betacoronavirus 1, OC43, MRC5, read-out: EC50 (µM) (95% CI).

Data set [4] deals with Hep-2 cells. As to the kind of experiment: Cytotoxic effect microscopically visible in the RSV-A2 screening. In kind it is cell-based, human. Also on record: key: -: Cytotoxic effect microscopically visible.
Data set [5] concerns MRC-5 cells. Kind of data set: Cytotoxic effect microscopically visible in the HCoV-OC43 screening. The data set is classed as cell-based, human. The arrangement: key: -: Cytotoxic effect microscopically visible. The settings on record: 33 µM.
Data set [6] concerns MDCK cells. Kind of data set: Cytotoxic effect microscopically visible in the IFV-A H1N1 screening. In kind it is cell-based, canine. Also on record: key: -: Cytotoxic effect microscopically visible. The settings on record: 33 µM.
Data set [7] can be described thus: Cell viability MTS assay on Hep-2 cells. The settings on record: human.
Data set [8] deals with IFV-A H1N1. Kind of data set: Virus inhibition assay (focus reduction), IFV-A H1N1 on MDCK cells. In kind it is cell-based. The note with it: Influenza A virus, read-out: EC50 (µM) (95% CI).
Data set [9] in a line: Cell viability MTS assay on MDCK cells. The note with it: dog.
Data set [10] can be described thus: in vitro. The settings on record: dog.
Data set [11] can be described thus: in vitro. The note with it: human.
Where [12] appears, read: RSV-A2, Hep-2 cells, read-out: EC50 (µM) (95% CI).

Structures are written as SMILES. Like-named read-outs stand apart in the source and are kept apart here.

In the case of `COc1ccc(-c2cc(C(=O)N[C@@H](Cc3ccc(O)cc3)C(=O)O)c3sc4ccc(OC5CCCCC5)cc4n3c2=O)cc1F` [Compound 2], the CC50 in data set [1] was 82.9 µM. Besides, in data set [2], the activity at 0.3 µM stood at 100% and the activity at 3 µM turned out to be 44%. Further, in data set [3], the activity at 0.3 µM came to 95%, the activity at 3 µM is 54%, the activity at 33 µM came to 1% and the EC50 (commonly the concentration giving half of the maximal effect) is 4.67 µM. In data set [4] (33 µM), the “Cytotoxic effect microscopically visible” value was “-”.

Turning to `O=C(NCc1ccccc1)c1cc(-c2ccccc2)c(=O)n2c1sc1ccc(OC3CCCCC3)cc12` [Compound 3], in [2], the activity at 0.3 µM was determined as 100%, the activity at 3 µM worked out at 93% and the activity at 33 µM worked out at 67%.

Take `O=C(NCC1(C(=O)O)CC1)c1cc(-c2ccccc2)c(=O)n2c1sc1ccc(OC3CCCCC3)cc12` [Compound 4]: the “Cytotoxic effect microscopically visible” value in data set [5] and in data set [4] (33 µM) was “-” throughout.

Consider `O=C(N[C@@H](Cc1ccc(O)cc1)C(=O)O)c1cc(-c2ccccc2)c(=O)n2c1sc1cc(OC3CCCCC3)ccc12` [Compound 5], for which the “Cytotoxic effect microscopically visible” value in data set [5] and in data set [4] (33 µM) was “-” throughout.

On to `O=C(O)CC(NC(=O)c1cc(-c2ccccc2)c(=O)n2c1sc1ccc(OC3CCCCC3)cc12)c1ccccc1` (centres unmarked) [Compound 6], for which the “Cytotoxic effect microscopically visible” value in data set [5], in data set [4] (3 µM) and in data set [4] (33 µM) was “-” throughout.

`C[C@H](CO)NC(=O)c1cc(-c2ccccc2)c(=O)n2c1sc1ccc(OC3CCCCC3)cc12` [Compound 7]: the “Cytotoxic effect microscopically visible” value in data set [6], in data set [5], in data set [4] (3 µM) and in data set [4] (33 µM) was “-” in each case.

Consider `O=C(N[C@@H](CO)C(=O)O)c1cc(-c2ccccc2)c(=O)n2c1sc1ccc(OC3CCCCC3)cc12` [Compound 8], for which, in data set [2], the activity at 0.3 µM worked out at 100%, the activity at 3 µM amounted to 100% and the activity at 33 µM amounted to 98%.

On to `O=C(N[C@@H](Cc1ccc(O)cc1)C(=O)O)c1cc(-c2ccc(Cl)cc2)c(=O)n2c1sc1ccc(OC3CCCCC3)cc12` [Compound 9], for which the CC50 in data set [1] came to 55.6 µM. In addition, in data set [3], the EC50 is 1.2 µM. In addition, the “Cytotoxic effect microscopically visible” value in data set [4] (33 µM) is “-”.

On to `O=C(O)CCNC(=O)c1cc(-c2ccccc2)c(=O)n2c1sc1ccc(OC3CCCCC3)cc12` [Compound 10], for which the CC50 in data set [1] was more than 200 µM. Besides, the EC50 in [3] was 7.97 µM. In data set [4] (33 µM), the “Cytotoxic effect microscopically visible” value is listed as “-”.

As to `O=C(c1cc(-c2ccccc2)c(=O)n2c1sc1ccc(OC3CCCCC3)cc12)N1CCC[C@@H](O)C1` [Compound 11], the “Cytotoxic effect microscopically visible” value in data set [6], in data set [5], in data set [4] (3 µM) and in data set [4] (33 µM) was “-” each time.

`NC(=O)CCNC(=O)c1cc(-c2ccccc2)c(=O)n2c1sc1ccc(OC3CCCCC3)cc12` [Compound 12]: the “Cytotoxic effect microscopically visible” value in [4] (33 µM) is recorded as “-”.

Molecule `O=C(NCc1ccc(O)cc1)c1cc(-c2ccccc2)c(=O)n2c1sc1ccc(OC3CCCCC3)cc12` [Compound 13] returned a CC50 in data set [7] of more than 200 µM. Further, in data set [2], the activity at 0.3 µM amounted to 100%, the activity at 3 µM was 15% and the activity at 33 µM worked out at 0%. The EC50 in data set [2] (HEp-2, read-out: EC50 (µM) (95% CI)) worked out at 2.87 µM. In addition, in [3], the activity at 0.3 µM came to 100%, the activity at 3 µM was found to be 100% and the activity at 33 µM came to 64%.

On to `O=C(N[C@@H](Cc1ccc(O)cc1)C(=O)O)c1cc(-c2ccc(F)cc2)c(=O)n2c1sc1ccc(OC3CCCCC3)cc12` [Compound 14], for which the CC50 in [1] stood at 62.2 µM. The EC50 in data set [3] was determined as 1.09 µM. The “Cytotoxic effect microscopically visible” value in [4] (33 µM) was “-”.

For `O=C(N[C@@H](Cc1ccc(O)cc1)C(=O)O)c1cc(-c2ccccc2F)c(=O)n2c1sc1ccc(OC3CCCCC3)cc12` [Compound 15], in data set [2], the activity at 0.3 µM was determined as 86%, the activity at 3 µM is 85% and the activity at 33 µM amounted to 40%.

For the molecule `O=C(N[C@@H](Cc1ccc(O)cc1)C(=O)O)c1cc(-c2cccc(F)c2)c(=O)n2c1sc1ccc(OC3CCCCC3)cc12` [Compound 16], the CC50 in [7] worked out at 72.9 µM; in [1], 84.7 µM. Besides, the EC50 was 18.6 µM in data set [2] (setting [12]) and 4.22 µM in data set [3].

On to `O=C(N[C@@H](Cc1ccc(O)cc1)C(=O)O)c1cc(-c2ccccc2)c(=O)n2c1sc1ccc(OC3CCCC3)cc12` [Compound 17], for which the “Cytotoxic effect microscopically visible” value in data set [4] (33 µM) is “-”.

Turning to `CC(C)C(CC(=O)O)NC(=O)c1cc(-c2ccccc2)c(=O)n2c1sc1ccc(OC3CCCCC3)cc12` (centres unmarked) [Compound 19], the “Cytotoxic effect microscopically visible” value in data set [6], in [5] and in [4] (33 µM) was “-” in each case.

Regarding `O=C(O)C1CCN(C(=O)c2cc(-c3ccccc3)c(=O)n3c2sc2ccc(OC4CCCCC4)cc23)C1` (centres unmarked) [Compound 20], in data set [2], the activity at 0.3 µM worked out at 100%, the activity at 3 µM came out at 100% and the activity at 33 µM stood at 100%.

Turning to `CC(CC(=O)O)NC(=O)c1cc(-c2ccccc2)c(=O)n2c1sc1ccc(OC3CCCCC3)cc12` (centres unmarked) [Compound 21], the “Cytotoxic effect microscopically visible” value in data set [6], in data set [5] and in data set [4] (33 µM) was “-” throughout.

In the case of `CCN(CC)CCOc1ccc(-c2cc(C(=O)Oc3ccc(S(N)(=O)=O)cc3)c3sc4ccc(OC5CCCCC5)cc4n3c2=O)cc1` [Compound 22], the “Cytotoxic effect microscopically visible” value in data set [6] and in data set [4] (33 µM) was “-” each time.

As for `NS(=O)(=O)c1ccc(OC(=O)c2cc(-c3ccccc3)c(=O)n3c2sc2ccc(OC4CCCCC4)cc23)cc1` [Compound 23], the CC50 in data set [1] was determined as 18.2 µM. Moreover, the EC50 in data set [3] was determined as 0.23 µM. Also, in data set [4] (33 µM), the “Cytotoxic effect microscopically visible” value was “-”.

`NS(=O)(=O)c1ccc(OC(=O)c2ccc(=O)n3c2sc2ccc(OC4CCCCC4)cc23)cc1` [Compound 24]: the “Cytotoxic effect microscopically visible” value in [6], in data set [5] and in data set [4] (33 µM) was “-” throughout.

As for `O=C(N[C@@H](Cc1ccc(O)cc1)C(=O)O)c1cc(-c2cccs2)c(=O)n2c1sc1ccc(OC3CCCCC3)cc12` [Compound 25], the EC50 in [8] turned out to be 13.7 µM; in data set [3], 0.29 µM. Also, the CC50 in data set [1] was determined as 16.5 µM; in data set [9], 86.1 µM. The “Cytotoxic effect microscopically visible” value in [4] (33 µM) was “-”.

Take `O=C(N[C@@H](Cc1ccccc1)C(=O)O)c1cc(-c2ccccc2)c(=O)n2c1sc1ccc(OC3CCCCC3)cc12` [Compound 26]: the “Cytotoxic effect microscopically visible” value in [5] and in data set [4] (33 µM) was “-” in each case.

As for `O=C(N[C@@H](Cc1ccc(O)cc1)C(=O)O)c1ccc(=O)n2c1sc1ccc(OC3CCCCC3)cc12` [Compound 27], the CC50 in [1] came out at 189 µM. Further, the EC50 in data set [3] was found to be 10 µM.

On to `CCN(CC)CCOc1ccc2sc3c(C(=O)Oc4ccc(S(N)(=O)=O)cc4)cc(-c4ccccc4)c(=O)n3c2c1` [Compound 28], for which the “Cytotoxic effect microscopically visible” value in [6], in [5] and in data set [4] (33 µM) was “-” throughout.

In the case of `NS(=O)(=O)c1ccc(OC(=O)c2cc(NCCN3CCOCC3)c(=O)n3c2sc2ccc(OC4CCCCC4)cc23)cc1` [Compound 29], the “Cytotoxic effect microscopically visible” value in data set [6], in data set [5] and in data set [4] (33 µM) was “-” in each case.

For `CCN(CC)CCCC(C)Nc1ccnc2cc(Cl)ccc12` (centres unmarked) [chloroquine, reference compound], in data set [3], the half-maximal effective concentration (EC50) was found to be 0.19 µM.

The molecule `CCOC(=O)C1=C[C@@H](OC(CC)CC)[C@H](NC(C)=O)[C@@H](N)C1` [oseltamivir, reference compound] displayed a CC50 in data set [10] of more than 200 µM. Moreover, the EC50 in [8] turned out to be 0.17 µM.

Turning to `NC(=O)c1ncn([C@@H]2O[C@H](CO)[C@@H](O)[C@H]2O)n1` [ribavirin, reference compound], the CC50 in data set [11] was more than 2400 µM. In addition, the EC50 in data set [2] (setting [12]) is 37 µM.

The record behind these values is publication PMC12299477 (Viruses, 2025).
